Test results from patent US20240139326A1, “METHACRYLAMIDES PROTEIN BINDERS AND USES THEREOF” (YEDA RESEARCH AND DEVELOPMENT CO. LTD., priority 2020, published 2024).
pIC50: −log10 of the molar value. Like-named read-outs stand apart in the source and are kept apart here.

What was measured:
Mino cells = experiment: In-gel fluorescence proteomic reactivity of alkyne probes; assay type: cell-based; conditions: Mino cells treated 2 h, clicked with TAMRA-azide
Procedure: The samples were incubated at 25 degrees for 2 hours.
Mino cells were treated for two hours with either DMSO, IA-alkyne, or 2a-c. The cells were lysed, labeled the alkynes via copper-catalyzed “click chemistry” with TAMRA (Tetramethylrhodamine)-azide, and imaged the adducts via in-gel fluorescence (FIG. 8B). […] This may be the result of cellular esterases that hydrolyze the ester, leaving an unreactive substituted acrylamide^26. All of the acrylamides were markedly less reactive than IA-alkyne.

BTK kinase domain [1] = target: T1, BTK kinase domain (Homo sapiens (Human), UniProt Q06187)
Procedure: (§2) The reaction mixtures, at room temperature for various times, were injected into the LC/MS. For data analysis, the raw spectra were deconvoluted using a 20000:40000 Da window and 1 Da resolution. The signal from masses 20000:30000 and 33000:40000 (which contained no peaks) was averaged and subtracted from the whole signal.

EGFR [2] = target: T2, EGFR (Homo sapiens (Human), UniProt P00533); experiment: EGFR kinase activity assay; assay type: biochemical; conditions: read-out: IC50 against EGFR
EGFR [3] = target: T2, EGFR; experiment: Fluorescence intensity measurement of CoLDR turn-on probe with EGFR; assay type: binding; conditions: 2 μM each
Procedure: (§1) Each condition was in triplicates in 20 mM Tris pH 8 50 mM NaCl for BTK and K-RAS^G12c, in 50 mM Tris pH 8.0, 100 mM NaCl for EGFR. fluorescent measurements were taken every 2 minutes for 2 hours for BTK and EGFR and every 10 minutes for 15 hours for K-RAS^G12c. […] K-Ras^G12C was expressed and purified as previously described^66, EGFR kinase domain was a generous gift from Prof. Michael Eck.
Similarly, 4b (FIG. 11B, Example 1; afatinib derivative functionalized with coumarin) and 5a (FIG. 11C, Example 1; AMG-510 derivative functionalized with coumarin) were treated with EGFR and K-RAS^G12c respectively and measured the released coumarin fluorescence (FIG. 11E, 11F).

BTK kinase domain [4] = target: T1, BTK kinase domain; experiment: Kinetic labeling experiments of Ibrutinib derivatives with BTK (intact protein LC/MS); conditions: for BTK Substitution/Addition: mechanism of BTK labeling; for labeling of BTK through the substitution mechanism: within 30 minutes
Procedure: as §2

wild-type BTK = wild-type BTK (Homo sapiens (Human), UniProt Q06187); experiment: In vitro kinase activity assay for BTK (Nanosyn); assay type: biochemical; conditions: for pIC50: 0.6 nM BTK, 5 μM ATP; for IC50: unit μM
Procedure: The reaction was initiated by 2-fold dilution into a solution containing 5 μM ATP and substrate.

physchem = conditions: 5 mM GSH in potassium phosphate buffer, pH 8
BTK [5] = target: T3, BTK (Homo sapiens (Human), UniProt Q06187); experiment: Fluorescence intensity measurement of CoLDR turn-on probe with BTK; assay type: binding; conditions: 2 μM probe, 2 μM BTK
Procedure: as §1
The fact that a specific leaving group is released as a function of selective binding of a target protein can be used to functionalize irreversible inhibitors, for example as turn-on fluorescent probes. To assess the applicability and generality of this approach three therapeutic targets were chosen for which acrylamide inhibitors are available: BTK, EGFR, and K-RAS^G12C as model systems. […] The rate of the reaction was […] by using 20:1 equivalents of protein:probe (FIG. 12). […] The release can also be inhibited by pre-incubation of BTK with Iodoacetamide alkyne (IAA; FIG. 13B).

BSA = BSA (Bos taurus (Bovine), UniProt P02769); experiment: Turn-on fluorescence selectivity control with BSA; assay type: binding; conditions: 10 μM BSA with 2 μM 3j
BTK [6] = target: T3, BTK; experiment: Fluorescence intensity measurements of labeling probes with BTK; conditions: 4 μM competitor
BTK [7] = target: T3, BTK; experiment: Turn-on chemiluminescence of probe 3k with BTK; assay type: binding
Procedure: Plate reader measurements were performed on Tecan Spark Control 10M fluorescent measurements using black 384 well plates with clear bottom.
Recently, adamantylidene-dioxetane based chemiluminescent turn-on probes for the sensing and imaging of enzymes, reactive oxygen species, and other analytes were reported^28-32 These probes, upon activation by analytes, release a phenolate-dioxetane intermediate which subsequently decomposes with the emission of a photon in the visible spectrum (FIG. 3). […] The chemiluminescence light emission profile of probe 3k (FIG. 15A, Example 1) upon activation with BTK (2 μM) was measured in the absence and presence of BTK (FIG. 15B). The kinetic profile in the presence of BTK was typical of a chemiluminescent probe with an initial signal was increased to a maximum within 20 minutes, followed by a slow decrease.

[8] = target: SARS-CoV-2 papain like protease (PL^pro) (Severe acute respiratory syndrome coronavirus 2 (2019-nCoV) (SARS-CoV-2), UniProt P0DTD1); experiment: Labeling of PLpro (LC/MS); assay type: binding; conditions: 2 μM protein, 16h, pH 8
BTK kinase domain [9] = target: T1, BTK kinase domain; experiment: Labeling experiments of Ibrutinib derivatives with BTK (ligand release, LC/MS); assay type: binding; conditions: BTK 2 μM, 10 min, 25° C., pH 8
Procedure: Binding experiments were performed in Tris 20 mM pH 8.0, 50 mM NaCl at room temperature. […] The reaction mixtures, at room temperature for various times, were injected into the LC/MS. For data analysis, the raw spectra were deconvoluted using a 20000:40000 Da window and 1 Da resolution. The labeling percentage for a compound was determined as the labeling of a specific compound (alone or together with other compounds) divided by the overall detected protein species.
To assess irreversible labeling and validate the proposed ligand release mechanism, the probes/compounds (2 μM) were incubated with recombinant BTK (2 μM) and monitored the reaction via intact protein liquid chromatography/mass spectrometry (LC/MS).

T1 sequence (Q06187 402-655): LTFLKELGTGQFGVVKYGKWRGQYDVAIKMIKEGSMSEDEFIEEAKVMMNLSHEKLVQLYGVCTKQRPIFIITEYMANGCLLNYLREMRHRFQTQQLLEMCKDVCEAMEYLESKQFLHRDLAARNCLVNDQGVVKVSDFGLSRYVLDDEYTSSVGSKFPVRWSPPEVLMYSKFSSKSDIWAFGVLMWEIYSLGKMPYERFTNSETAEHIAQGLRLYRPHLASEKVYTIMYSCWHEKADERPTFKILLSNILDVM
T3 sequence (Q06187 2-659 limits assumed): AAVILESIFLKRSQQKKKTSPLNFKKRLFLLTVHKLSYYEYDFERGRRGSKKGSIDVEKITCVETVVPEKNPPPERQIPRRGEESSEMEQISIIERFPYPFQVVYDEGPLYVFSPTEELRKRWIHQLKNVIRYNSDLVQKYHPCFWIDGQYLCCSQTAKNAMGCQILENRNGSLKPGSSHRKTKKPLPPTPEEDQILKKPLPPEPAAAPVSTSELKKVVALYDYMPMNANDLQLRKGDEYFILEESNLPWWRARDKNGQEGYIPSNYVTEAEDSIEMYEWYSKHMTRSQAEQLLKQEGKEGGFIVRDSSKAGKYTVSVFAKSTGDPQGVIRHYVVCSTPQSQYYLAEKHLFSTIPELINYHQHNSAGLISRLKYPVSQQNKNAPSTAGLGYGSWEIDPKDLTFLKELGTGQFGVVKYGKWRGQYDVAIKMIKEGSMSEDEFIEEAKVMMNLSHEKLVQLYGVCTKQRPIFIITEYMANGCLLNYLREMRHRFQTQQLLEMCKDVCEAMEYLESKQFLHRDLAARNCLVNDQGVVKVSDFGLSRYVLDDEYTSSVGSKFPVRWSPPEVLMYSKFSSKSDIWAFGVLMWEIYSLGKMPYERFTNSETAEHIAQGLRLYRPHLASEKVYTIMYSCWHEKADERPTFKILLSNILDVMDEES
Sequence of wild-type BTK (Q06187 whole entry): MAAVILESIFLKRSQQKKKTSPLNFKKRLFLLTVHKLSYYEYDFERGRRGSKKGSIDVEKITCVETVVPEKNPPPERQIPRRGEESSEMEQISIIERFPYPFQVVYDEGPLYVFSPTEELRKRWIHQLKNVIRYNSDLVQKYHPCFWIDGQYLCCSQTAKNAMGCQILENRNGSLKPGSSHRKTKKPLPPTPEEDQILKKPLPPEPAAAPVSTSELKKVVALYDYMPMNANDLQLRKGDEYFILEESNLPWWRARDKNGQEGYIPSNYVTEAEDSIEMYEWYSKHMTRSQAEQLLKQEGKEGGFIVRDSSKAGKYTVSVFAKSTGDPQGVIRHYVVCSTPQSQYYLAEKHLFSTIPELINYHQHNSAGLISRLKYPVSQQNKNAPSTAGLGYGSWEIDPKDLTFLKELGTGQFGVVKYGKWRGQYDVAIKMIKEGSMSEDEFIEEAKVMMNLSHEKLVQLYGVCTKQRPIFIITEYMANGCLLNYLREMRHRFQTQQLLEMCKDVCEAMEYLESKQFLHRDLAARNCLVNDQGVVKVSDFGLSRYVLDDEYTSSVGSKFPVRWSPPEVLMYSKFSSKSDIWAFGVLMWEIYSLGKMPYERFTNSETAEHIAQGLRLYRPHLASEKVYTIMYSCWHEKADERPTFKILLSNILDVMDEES
T2 sequence (P00533 25-1210 limits assumed): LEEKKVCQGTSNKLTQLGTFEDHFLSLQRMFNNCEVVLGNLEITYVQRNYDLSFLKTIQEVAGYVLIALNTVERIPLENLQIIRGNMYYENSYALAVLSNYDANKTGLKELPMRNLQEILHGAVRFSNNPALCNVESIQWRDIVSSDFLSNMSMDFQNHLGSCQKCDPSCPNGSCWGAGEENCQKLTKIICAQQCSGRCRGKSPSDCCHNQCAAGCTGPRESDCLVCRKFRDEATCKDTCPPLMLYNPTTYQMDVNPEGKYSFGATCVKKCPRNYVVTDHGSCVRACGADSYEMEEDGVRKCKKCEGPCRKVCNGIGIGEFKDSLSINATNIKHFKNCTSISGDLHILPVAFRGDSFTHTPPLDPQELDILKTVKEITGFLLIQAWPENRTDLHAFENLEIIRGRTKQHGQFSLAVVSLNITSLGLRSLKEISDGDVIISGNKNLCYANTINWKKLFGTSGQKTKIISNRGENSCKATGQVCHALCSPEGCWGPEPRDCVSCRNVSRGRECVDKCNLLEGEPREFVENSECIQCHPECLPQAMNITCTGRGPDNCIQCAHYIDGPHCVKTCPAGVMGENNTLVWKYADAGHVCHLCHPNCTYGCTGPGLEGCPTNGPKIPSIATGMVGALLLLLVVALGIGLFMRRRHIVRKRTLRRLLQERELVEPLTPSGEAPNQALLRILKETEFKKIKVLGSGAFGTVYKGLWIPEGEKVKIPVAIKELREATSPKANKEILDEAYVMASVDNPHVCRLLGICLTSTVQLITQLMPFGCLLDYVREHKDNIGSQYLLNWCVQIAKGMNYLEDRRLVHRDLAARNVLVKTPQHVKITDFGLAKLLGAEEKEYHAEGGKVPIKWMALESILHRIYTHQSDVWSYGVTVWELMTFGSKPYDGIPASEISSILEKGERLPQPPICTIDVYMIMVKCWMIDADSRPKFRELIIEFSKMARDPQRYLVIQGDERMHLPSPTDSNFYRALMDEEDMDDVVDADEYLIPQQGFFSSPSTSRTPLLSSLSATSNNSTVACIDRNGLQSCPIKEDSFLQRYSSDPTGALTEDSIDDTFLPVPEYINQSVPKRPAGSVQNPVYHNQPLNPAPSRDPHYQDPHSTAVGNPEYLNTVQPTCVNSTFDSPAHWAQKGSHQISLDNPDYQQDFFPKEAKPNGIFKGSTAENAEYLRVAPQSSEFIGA
Sequence of BSA (P02769 25-607 limits assumed): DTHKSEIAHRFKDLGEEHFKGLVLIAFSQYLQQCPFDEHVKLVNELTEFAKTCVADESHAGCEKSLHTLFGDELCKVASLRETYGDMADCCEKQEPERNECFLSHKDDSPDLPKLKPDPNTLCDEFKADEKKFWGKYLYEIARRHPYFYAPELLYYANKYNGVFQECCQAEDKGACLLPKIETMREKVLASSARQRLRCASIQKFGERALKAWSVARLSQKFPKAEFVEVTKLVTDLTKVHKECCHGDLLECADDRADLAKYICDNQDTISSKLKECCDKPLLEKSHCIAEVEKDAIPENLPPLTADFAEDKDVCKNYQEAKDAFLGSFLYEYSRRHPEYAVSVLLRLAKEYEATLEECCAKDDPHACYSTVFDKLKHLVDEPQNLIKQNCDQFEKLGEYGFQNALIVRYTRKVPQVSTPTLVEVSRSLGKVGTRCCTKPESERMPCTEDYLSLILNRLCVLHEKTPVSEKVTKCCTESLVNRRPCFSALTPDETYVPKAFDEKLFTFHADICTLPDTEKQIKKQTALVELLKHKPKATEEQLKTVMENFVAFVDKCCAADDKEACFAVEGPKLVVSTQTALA

For C#CCCNC(=O)C(=C)COc1ccc2ccc(=O)oc2c1 [Compound 2a, N-(but-3-yn-1-yl)-2-(((2-oxo-2H-chromen-7-yl)oxy)methyl)acrylamide], the “proteomic reactivity (in-gel fluorescence)” value (Mino cells) was “slightly higher reactivity than 2b”.
In the case of C=C(C)C(=O)N1CCC[C@@H](n2nc(-c3ccc(Oc4ccccc4)cc3)c3c(N)ncnc32)C1 [Compound 3a, (R)-1-(3-(4-amino-3-(4-phenoxyphenyl)-1H-pyrazolo[3,4-d]pyrimidin-1-yl)piperidin-1-yl)-2-methylprop-2-en-1-one], the “BHK t1/2” value (BTK kinase domain [1]) was >420 min.
For C=C(COc1ccc2ccc(=O)oc2c1)C(=O)Nc1cc2c(Nc3ccc(F)c(Cl)c3)ncnc2cc1OC [Compound 4b, N-(4-((3-chloro-4-fluorophenyl)amino)-7-methoxyquinazolin-6-yl)-2-(((2-oxo-2H-chromen-7-yl)oxy)methyl)acrylamide], the pIC50 (EGFR [2]) was 8.48 and the “released coumarin fluorescence with EGFR” value (EGFR [3]) was “significant increase in fluorescence intensity”.
For C=C(CN(C)c1ccccc1)C(=O)N1CCC[C@@H](n2nc(-c3ccc(Oc4ccccc4)cc3)c3c(N)ncnc32)C1 [Compound 3d, (R)-1-(3-(4-amino-3-(4-phenoxyphenyl)-1H-pyrazolo[3,4-d]pyrimidin-1-yl)piperidin-1-yl)-2-((methyl(phenyl)amino)methyl)prop-2-en-1-one], the “BHK t1/2” value (BTK kinase domain [4]; BTK labeling, 2 μM compound and 2 μM BTK at room temperature) was 47 min, the “BTK Substitution/Addition” value (BTK kinase domain [4]) was “Substitution” and the “labeling of BTK through the substitution mechanism” value (BTK kinase domain [4]) was 100%. For the same molecule, the pIC50 (wild-type BTK) was 8.25.
For C=C(CN1CCCCC1)C(=O)N1CCC[C@@H](n2nc(-c3ccc(Oc4ccccc4)cc3)c3c(N)ncnc32)C1 [Compound 3c, (R)-1-(3-(4-amino-3-(4-phenoxyphenyl)-1H-pyrazolo[3,4-d]pyrimidin-1-yl)piperidin-1-yl)-2-(piperidin-1-ylmethyl)prop-2-en-1-one], the “BTK Substitution/Addition” value (BTK kinase domain [4]) was “exclusively through addition”, the pIC50 (wild-type BTK) was 10.00 and the IC50 (wild-type BTK) was < 100 µM.
With C=C(COC(=O)Oc1ccc([N+](=O)[O-])cc1)C(=O)NCc1ccccc1 [Compound 1j, 2-(benzylcarbamoyl)allyl (4-nitrophenyl) carbonate] the half-life at 100 μM (physchem) was 54 min.
In the case of C=C(CNCc1ccccc1)C(=O)N1CCC[C@@H](n2nc(-c3ccc(Oc4ccccc4)cc3)c3c(N)ncnc32)C1 [Compound 3e, (R)-1-(3-(4-amino-3-(4-phenoxyphenyl)-1H-pyrazolo[3,4-d]pyrimidin-1-yl)piperidin-1-yl)-2-((benzylamino)methyl)prop-2-en-1-one], the “BTK Substitution/Addition” value (BTK kinase domain [4]) was “exclusively through addition”, the “BTK labeling t1/2 faster than Ibrutinib” value (BTK kinase domain [4]; relative to Ibrutinib) was 50% and the “BHK t1/2” value (BTK kinase domain [1]; recombinant enzyme) was <5 min. For the same molecule, the pIC50 (wild-type BTK) was 10.00 and the IC50 (wild-type BTK) was < 100 µM.
For C=C(COc1ccc2ccc(=O)oc2c1)C(=O)N1CCC[C@@H](n2nc(-c3ccc(Oc4ccccc4)cc3)c3c(N)ncnc32)C1 [Compound 3j, (R)-7-((2-(3-(4-amino-3-(4-phenoxyphenyl)-1H-pyrazolo[3,4-d]pyrimidin-1-yl)piperidine-1-carbonyl)allyl)oxy)-2H-chromen-2-one], the “labeling of BTK through the substitution mechanism” value (BTK kinase domain [4]) was 100%, the “increase of fluorescence intensity at 435 nm upon addition of BTK” value (BTK [5]) was 30 fold and the “time to fluorescence saturation” value (BTK [5]) was ≤ 10 min. For the same molecule, the “fluorescence on incubation with BSA” value (BSA) was “did not result in increased fluorescence”.
For Nc1ncnc2c1c(-c1ccc(Oc3ccccc3)cc1)nn2[C@@H]1CCCNC1 [Ibr-H, reference compound], the “7m turn-on fluorescence after pre-incubation of BTK with competitor” value (BTK [6]) was “eliminated the fluorescence” and the “3k luminescence after pre-incubation of BTK with competitor” value (BTK [7]; 2 μM, 0.5 h pre-incubation) was “significant decrease in the luminescence detected”.
With C#CCCNC(=O)C(=C)COC(=O)c1ccccc1 [Compound 2c, 2-(but-3-yn-1-ylcarbamoyl)allyl benzoate] the “proteomic reactivity (in-gel fluorescence)” value (Mino cells) was “completely inactive”.
For C=C(COC(C)=O)C(=O)N1CCC[C@@H](n2nc(-c3ccc(Oc4ccccc4)cc3)c3c(N)ncnc32)C1 [Compound 3g, (R)-2-(3-(4-amino-3-(4-phenoxyphenyl)-1H-pyrazolo[3,4-d]pyrimidin-1-yl)piperidine-1-carbonyl)allyl acetate], the “BTK Substitution/Addition” value (BTK kinase domain [4]) was “Substitution”, the “labeling of BTK through the substitution mechanism” value (BTK kinase domain [4]) was 100% and the pIC50 (wild-type BTK) was 10.00. The IC50 (wild-type BTK) was < 100 µM.
For C=C(COC(=O)c1cc(OC)c(OC)c(OC)c1)C(=O)OCC [Compound 7t], the “single labeling of PL^pro” value [8] was 100%.
In the case of C#CCCNC(=O)C(=C)CN1CCC(CNc2ncnc(N)c2-c2ccc(Oc3ccccc3)cc2)CC1 [Compound 7g], the “single labeling of BTK” value (BTK kinase domain [9]) was 100%.
With C=C(COc1c(Cl)cc(C2(OC)OOC23[C@H]2C[C@@H]4C[C@@H](C[C@H]3C4)C2)cc1/C=C/C(=O)OC)C(=O)N1CCC[C@@H](n2nc(-c3ccc(Oc4ccccc4)cc3)c3c(N)ncnc32)C1 (stereo partly drawn) [Compound 3k, Methyl (E)-3-(2-((2-((R)-3-(4-amino-3-(4-phenoxyphenyl)-1H-pyrazolo[3,4-d]pyrimidin-1-yl)piperidine-1-carbonyl)allyl)oxy)-3-chloro-5-((1r,3r,5R,7R)-4′-methoxyspiro[adamantane-2,3′-[1,2]dioxetan]-4′-yl)phenyl)acrylate] the “time to maximum chemiluminescence signal” value (BTK [7]; BTK 2 μM) was ≤ 20 min.
